Assay results taken from patent EP1377579B1 (Aventis Pharmaceuticals Inc., priority 2000, dated 2002).
Where a name gives a salt, the structure may show the parent alone. Read-outs that look alike come from different tables or passages of the source.

Assays:
cdk4/cyclin D1 = cdk4/cyclin D1 (Homo sapiens, UniProt P11802); assay: Cyclin-dependent kinase assay, cdk4/cyclin D1; format: biochemical; settings: cyclin D1/cdk4; GST-pRb substrate, 10 µM ATP
MDA-MB-435 = assay: In vitro proliferation assay (MTT), MDA-MB-435; format: cell-based, human; settings: Homo sapiens
How it was run: (§1)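 MTT viability, 3 d compound treatment; seeding 1000–2500 cells/well, overnight attachment; formazan in DMSO, A570; IC50 fitted from raw absorbance.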

NCI-H460 = assay: In vitro proliferation assay (MTT), NCI-H460; format: cell-based; settings: Homo sapiens
How it was run: (§2)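 Plate 1000–2500 cells/well, RPMI 1640 + 5 % FBS, 3 mM L-glutamine; attach overnight → compound treatment 3 days → MTT, 37 C, 2–4 hr → remove medium, solubilize in DMSO → absorbance 570 nm → IC50.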

HL-60 = assay: In vitro proliferation assay (MTT), HL-60; format: cell-based; settings: Homo sapiens
How it was run: as §2

PC-3 = assay: In vitro proliferation assay (MTT), PC-3; format: cell-based, human; settings: Homo sapiens
How it was run: as §1

[1] = test system: PC-3 Human Prostate Tumors; assay: PC-3 human prostate tumor xenograft in nude mice; format: in vivo; parameters: unit not given here; settings: Table 5
Protocol: (§3) Antitumor efficacy is assessed using two subcutaneous human tumor xenograft models. The studies are performed using conventional assay techniques. Briefly, HL-60 (leukemia, 5 x10^5 cells) and PC-3 (prostate, 5 x 10^6 cells) tumor cells are injected subcuateously into nude mice (Crl-CD1-Br-nu, Charles River Laboratory, Wilmington, MA). Dosing with compounds began when tumors reached 50 to 100 mm^3. The dose route/schedule for the test compounds is ip/qld (5x/wk). The test doses are set based on the maximum tolerated dose (MTD). […] The test doses for the efficacy studies are set at 1/3rd the MTD (low dose) and the MTD (high dose). The results are shown in Tables 4 and 5 (HL-60, leukemia) (PC-3, prostate cancer). The length of the treatment phase is dependent on the tumor growth rate for the two models. This treatment phase is typically about 3 weeks for the HL-60 model and about 5 weeks for the PC-3 model. […] Dosing with flavopiridol is for the same time frame as for the experimental compounds in both xenograft models. Tumor volume (twice weekly) and body weights (once weekly) are monitored throughout the course of the treatment phase of the experiment. Tumor sizes are measured by external caliper measurements of protruding tumor. Volumes are calculated using the following formula: volume =½ (a x b2), where b is the smaller of two perpendicular diameters.

HL-60 Human Leukemia = assay: HL-60 human leukemia xenograft in nude mice; format: in vivo; settings: Table 5
Protocol: as §3

[2] = Red blood cell binding, human whole blood; format: in vitro ADME; settings: 30 minutes at 37°C, 500 ng/ml
Protocol: (§4) Compounds, including one positive control, are assessed for red blood cell (RBC) uptake, using a modified procedure based on the protocol reported in Sun, J.X.S., et al. High-performance liquid chromatographic analysis, plasma protein binding and red blood cell partitioning of phenprobamate. Biopharmaceutics and Drug Disposition, 8 (1987) 341-351.
(§5) Briefly, RBC uptake is evaluated by comparison of the levels in spiked plasma (n=3) and plasma isolated from spiked whole blood (n=3). Compounds are incubated with human and mouse whole blood, respectively, for 30 minutes at 37°C using a nominal concentration of 500 ng/ml. Following centrifugation, the plasma is removed and submitted for analysis. Each compound is also spiked into blank plasma at a nominal concentration of 500 ng/ml, and submitted for analysis. Levels in the two plasma samples (Cp' and Cp in the equation below) and the blood hematocrit are used to determine the red blood cell to plasma ratio (Crbc/Cp). (Crbc)/(Cp) = (Cpʹ)/(Cp•H)-((1-H))/(H) [formula] In equation 1, Cp' is the level of drug in the spiked "blank" plasma, Cp is the level of drug in the plasma of spiked whole blood, and H is the hematocrit. The hematocrit values are determined as 0.4 for human whole blood and 0.41 for mouse whole blood. The samples are analyzed with ESI LC/MS, using positive ion detection with an internal standard.
(§6) The red blood cell to plasma ratio is determined for each compound using equation 1. Tables 6 and 7 summarize the respective mean Crbc/Cp values and standard deviations for mouse and human whole blood, respectively, in descending order based on the red blood cell to plasma ratio, where"*" denotes Positive Control, and "ND" denotes Not Determined. MDL 108552 is included as a positive control for red blood cell uptake. Table 6. Red Blood Cell to Plasma Ratio for compounds in mouse whole blood

Colo-205 = assay: In vitro proliferation assay (MTT), Colo-205; format: cell-based; settings: Homo sapiens
How it was run: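 Colo-205 cells were seeded at 1000–2500 cells/well and allowed to attach overnight, then exposed to compound for 3 days. Viable cells were measured by MTT reduction (2–4 h, 37 °C), with DMSO-solubilised dye read at 570 nm. IC50 was derived from concentration–response data.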

in vivo = settings: male, Hsd:ICR (CD-1), mouse, plasma
cdk1/cyclin B = cdk1/cyclin B (Homo sapiens, UniProt P06493); assay: Cyclin-dependent kinase assay, cdk1/cyclin B; settings: CDK1 IC50, nM, Histone H1, 10 µM ATP
cdk2/cyclin E = cdk2/cyclin E (Homo sapiens, UniProt P24941); assay: Cyclin-dependent kinase assay, cdk2/cyclin E; settings: CDK2 IC50, nM, GST-pRb substrate, 10 µM ATP
Protocol: The insect cell (Sf9) expression is optimized for each of the CDK/cyclin pairs according to the manufacturer's protocols (Life Technologies).
The viruses are added to the cells and the culture is incubated at 27°C for the desired time. The cells are harvested by centrifugation at 3000 rpm for 10 minutes. The cells are snap frozen on dry ice and stored at - 80°C.
Cell extracts are made following a standard procedure. The cell pellet is resuspended in lysis buffer (50 mM HEPES, pH 8.0, 10 mM MgCl2, 1 mM DTT, 2.5 mM EGTA, 1 mM EDTA, 10 mM β-glycerophosphate, 1 mM sodium vanadate, 1 mM sodium fluoride, 1 x Protease inhibitor cocktail). The cells are lysed using the microfluidizer (Microfluidics) for 20 minutes. Cell debris is removed by centrifugation at 100,000 x g. The cell extracts are aliquoted in 1 ml aliquots, frozen on dry ice, and stored at -80°C.
The kinase reactions are performed following a standard procedure. The enzyme and inhibitor are diluted in kinase buffer (50 mM HEPES, pH 8.0, 10 mM MgCl2, 2.5 mM EGTA, 10 mM β-glycerophosphate, 1 mM sodium vanadate, 1 mM sodium fluoride, and 1 mM DTT) and pre-incubated for 30 minutes. The cdk2 and cdk4 enzyme activities are assayed using 500 ng of the GST-pRb substrate (see description below) in the presence of 10 µM cold ATP and 1 µCi of [γ-^33P] ATP for 30 minutes at room temperature. […] The reactions are terminated by the addition of 50 µL of 10 mM cold ATP to stop the reactions. The reactions are transferred to a pre-soaked 96-well multi-screen plate containing 30 µL of 100% TCA per well. After incubation for one hour at room temperature, the plates are washed twice with 200 µl of 20% TCA, followed by 200 µl of 10% TCA and finally with 200 µl of 5% TCA. After drying the plates at room temperature, the filter plates are placed in adapter plates (Packard) and 40 µl of Microscint-O® (Packard) is added to each well.

[3] = Bioavailability experiment in mice given single intravenous cassette doses; settings: for Cls: mice plasma, single intravenous cassette dose
[4] = Red blood cell binding, mouse whole blood; format: in vitro ADME; settings: 30 minutes at 37°C, 500 ng/ml
Protocol: as §4, §5, §6

[5] = test system: neuronally differentiated PC12 cells, rat sympathetic neurons; settings: cited from earlier work; for concentration of maximal protection from death: camptothecin-treated PC12 cells or rat sympathetic neurons; for cell death: camptothecin-treated, at day 6
cortical neuronal death = settings: cited from earlier work; for IC50: Park et al. 1997, read-out: IC50, protection against camptothecin-induced cortical neuronal death
Jurkat = assay: In vitro proliferation assay (MTT), Jurkat; format: cell-based; settings: Homo sapiens, MTT assay, value (SD, n) where given, read-out: Jurkat Leuk. (IC50 µM)
How it was run: as §2

[6] = MDA-MB-435, read-out: MB-435 Breast (IC50 µM)
[7] = NCI-H460, read-out: H-460 Lung (IC50 µM)
[8] = PC-3, read-out: PC-3 Prostate (IC50 µM)
[9] = COLO 205, read-out: Colo-205 Colon (IC50 µM)
[10] = camptothecin-treated neuronal cells
[11] = MDA-MB-435, MTT assay, value (SD, n) where given, read-out: MB-435 Breast (IC50 µM)
[12] = HL-60, MTT assay, value (SD, n) where given, read-out: HL-60 Leuk. (IC50 µM)
[13] = PC-3, MTT assay, value (SD, n) where given, read-out: PC-3 Prostate (IC50 µM)

cdk4/cyclin D1, sequence (P11802 whole entry): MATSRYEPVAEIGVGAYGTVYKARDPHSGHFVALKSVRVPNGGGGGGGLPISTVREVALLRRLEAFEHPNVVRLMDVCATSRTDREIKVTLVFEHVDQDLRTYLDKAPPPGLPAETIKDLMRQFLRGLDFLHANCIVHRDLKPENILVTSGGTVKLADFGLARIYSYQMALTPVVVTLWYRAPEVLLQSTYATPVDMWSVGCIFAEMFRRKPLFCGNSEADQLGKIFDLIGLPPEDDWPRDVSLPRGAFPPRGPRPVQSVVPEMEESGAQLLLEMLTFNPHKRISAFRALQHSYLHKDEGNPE
cdk4/cyclin D1, sequence (P24385 whole entry partner): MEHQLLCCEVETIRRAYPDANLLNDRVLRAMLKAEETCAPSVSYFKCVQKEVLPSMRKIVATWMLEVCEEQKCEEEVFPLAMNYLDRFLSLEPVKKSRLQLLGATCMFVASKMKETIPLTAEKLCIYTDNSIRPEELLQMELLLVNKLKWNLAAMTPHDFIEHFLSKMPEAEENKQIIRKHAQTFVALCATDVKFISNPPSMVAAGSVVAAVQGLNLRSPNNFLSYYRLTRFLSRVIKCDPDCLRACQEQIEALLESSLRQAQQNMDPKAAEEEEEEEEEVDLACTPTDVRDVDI
cdk1/cyclin B, sequence (P06493 whole entry): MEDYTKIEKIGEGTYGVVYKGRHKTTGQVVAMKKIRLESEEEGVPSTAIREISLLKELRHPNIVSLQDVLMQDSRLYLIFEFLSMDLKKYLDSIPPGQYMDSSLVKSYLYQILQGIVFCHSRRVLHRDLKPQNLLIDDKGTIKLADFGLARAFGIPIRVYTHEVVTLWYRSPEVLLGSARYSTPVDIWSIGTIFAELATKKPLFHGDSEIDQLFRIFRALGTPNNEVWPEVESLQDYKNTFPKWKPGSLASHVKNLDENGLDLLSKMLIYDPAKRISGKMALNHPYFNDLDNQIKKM
cdk1/cyclin B, sequence (P14635 whole entry partner): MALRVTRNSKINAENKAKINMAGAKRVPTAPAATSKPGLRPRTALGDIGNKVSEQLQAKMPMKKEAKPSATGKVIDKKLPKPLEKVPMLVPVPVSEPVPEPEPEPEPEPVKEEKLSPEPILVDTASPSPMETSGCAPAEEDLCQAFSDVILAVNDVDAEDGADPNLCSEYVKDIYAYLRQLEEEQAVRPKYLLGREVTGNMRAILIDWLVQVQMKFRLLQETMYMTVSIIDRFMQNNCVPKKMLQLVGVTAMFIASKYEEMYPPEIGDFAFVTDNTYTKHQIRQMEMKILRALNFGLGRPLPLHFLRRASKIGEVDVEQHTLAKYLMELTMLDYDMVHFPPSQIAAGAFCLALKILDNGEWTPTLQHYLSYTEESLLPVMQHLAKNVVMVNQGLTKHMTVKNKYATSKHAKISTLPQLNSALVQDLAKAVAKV

SMILES | IC50 (cdk4/cyclin D1) [nM] | IC50 (MDA-MB-435; [6]) [µM] | IC50 (NCI-H460; [7]) [µM] | IC50 (PC-3; [8]) [µM] | PC-3 Mean Vol. ± SD ([1]; dose 1 mg/kg ip) | PC-3 Mean Vol. ± SD ([1]; dose 3 mg/kg ip) | HL60 Mean Vol. ± SD (HL-60 Human Leukemia; dose 1 mg/kg ip) | HL60 Mean Vol. ± SD (HL-60 Human Leukemia; dose 3 mg/kg ip) | Mean Red Blood Cell to Plasma Ratio [2] | IC50 (Colo-205; [9]) [µM] | AUC(0-inf) (in vivo; iv, 3 mg/kg) [ng·h/mL] | Cmax (in vivo; iv, 3 mg/kg) [ng/mL] | half-life (in vivo; iv, 3 mg/kg) [min] | IC50 (cdk1/cyclin B) [nM] | IC50 (cdk2/cyclin E) [nM] | concentration of maximal protection from death [5] [µM] | cell death [5] | IC50 (cortical neuronal death) [µM] | IC50 (MDA-MB-435; [11]) [µM] | IC50 (HL-60; [12]) [µM] | also measured
Cc1ccc(OC(=O)N2CCC(Nc3nc(N[C@H]4CC[C@H](N)CC4)nc4c3ncn4C3CCCC3)CC2)cc1.Cl.Cl [compound 82, trans-4-[2-(4-Amino-cyclohexylamino)-9-cyclopentyl-9H-purin-6-ylamino]-piperidine-1-carboxylic acid p-tolyl ester dihydrochloride] | 131 | 0.06 | 0.08 | 0.12 | 810 ± 600 | 967 ± 407 | 5164 ± 55516 | 2841 ± 1845 | 5.8 | 0.06 | 944 | 1460 | 180 | 31 | 45 |  |  |  |  |  | IC50 (HL-60; HL-60, read-out: HL-60 Leuk. (IC50 µM)): 0.04 µM; concentration at 0.083 h (in vivo; intravenous, 3 mg/kg): 1460 ± 77.4 ng/mL; concentration at 0.25 h (in vivo; intravenous, 3 mg/kg): 875 ± 96.7 ng/mL; concentration at 0.5 h (in vivo; intravenous, 3 mg/kg): 370 ± 40 ng/mL; concentration at 1 h (in vivo; intravenous, 3 mg/kg): 134 ± 16.3 ng/mL; concentration at 3 h (in vivo; intravenous, 3 mg/kg): 37.5 ± 10.7 ng/mL; concentration at 6 h (in vivo; intravenous, 3 mg/kg): 14.5 ± 3.4 ng/mL; concentration at 8 h (in vivo; intravenous, 3 mg/kg): 12.3 ± 2.2 ng/mL; Cls ([3]; 3 mg/kg/compound (15 mg/kg Total Dose), Cassette #4): 53.0 mL/min/kg; Conc. in plasma ([3]; mice, single 15 mg/kg intravenous cassette dose (3 mg/kg/compound), Cassette #4, 24 h, BLQ = below assay quantification limit (approximately 1 ng/ml)): BLQ
Cl.Cl.N[C@H]1CC[C@H](Nc2nc(NC3CCN(C(=O)Oc4ccccc4)CC3)c3ncn(C4CCCC4)c3n2)CC1 [compound 85, trans-4-[2-(4-Amino-cyclohexylamino)-9-cyclopentyl-9H-purin-6-ylamino]-piperidine-1-carboxylic acid phenyl ester dihydrochloride] | 65 | 0.03 | 0.06 | 0.06 | 912 ± 755 | 1208 ± 1247 | 3590 ± 2674 | 5215 ± 4068 | 7.1 | 0.03 | 467 | 843 | 138 | 26 | 8 |  |  |  |  |  | Mean Red Blood Cell to Plasma Ratio [4]: 6.1; concentration at 0.083 h (in vivo; iv, 18 mg/kg): 843 ± 124 ng/mL; concentration at 0.25 h (in vivo; iv, 18 mg/kg): 342 ± 45.1 ng/mL; concentration at 0.5 h (in vivo; iv, 18 mg/kg): 164 ± 15.7 ng/mL; concentration at 1 h (in vivo; iv, 18 mg/kg): 89 ± 21.5 ng/mL; concentration at 3 h (in vivo; iv, 18 mg/kg): 14.3 ± 7.1 ng/mL; concentration at 6 h (in vivo; iv, 18 mg/kg): 5.2 ± 1.9 ng/mL; concentration at 8 h (in vivo; iv, 18 mg/kg): 3.2 ± 0.8 ng/mL; Conc. (ng/ml) in plasma ([3]; Cassette #1, single 18 mg/kg intravenous cassette dose, mice, 24 h, BLQ = below assay quantification limit): BLQ; Cls ([3]; 3 mg/kg/compound (18 mg/kg Total Dose), Cassette #1): 107.1 mL/min/kg
Cn1cnc2nc(NCCO)nc(NCc3ccccc3)c21 [iso-olomoucine] |  |  |  |  |  |  |  |  |  |  |  |  |  |  |  |  |  |  |  |  | prevention of cell death [5, 10]: failed to prevent the cell death; prevention of cell death (cortical neuronal death; [10]): failed to prevent the cell death
Cn1cnc2c(NCc3ccccc3)nc(NCCO)nc21 [Olomoucine, 6-(benzylamino)-2-[(2-hydroxyethyl)amino]-9-methylpurine] |  |  |  |  |  |  |  |  |  |  |  |  |  |  |  | 200 | approximately 30% | 100 |  |  | 
CN1CC[C@H](c2c(O)cc(O)c3c(=O)cc(-c4ccccc4Cl)oc23)[C@H](O)C1 [Flavopiridol, flavopiridol, reference compound] |  |  |  |  |  |  |  |  |  |  |  |  |  |  |  | 1 | approximately 30% | 0.1 | 0.09 | 0.02 | IC50 (NCI-H460; NCI-H460, MTT assay, value (SD, n) where given, read-out: H-460 Lung (IC50 µM)): 0.07 µM; IC50 (Jurkat): 0.08 µM; IC50 (PC-3; [13]): 0.08 µM; IC50 (Colo-205; COLO 205, MTT assay, value (SD, n) where given, read-out: Colo-205 Colon (IC50 µM)): 0.03 µM
N[C@H]1CC[C@H](Nc2nc(NC3CCN(C(=O)c4cccc(C(F)(F)F)c4)CC3)c3ncn(C4CCCC4)c3n2)CC1 [compound 3, dihydrochloride] | 1120 |  |  |  | 671 ± 672 | 785 ± 473 | 6370 ± 4655 | 6092 ± 4278 |  |  |  |  |  | 55 | 48 |  |  |  | 0.25 | 0.13 | IC50 (Jurkat): 0.22 µM; IC50 (PC-3; [13]): 0.66 µM
